# From US9556165B2 (priority 2012, dated 2017)
# Columns and labels:
# Type in all cases: cell-based
# B. fragilis 6688 = assay: MIC determination, broth microdilution (CLSI); conditions: Bacteroides fragilis, 6688, strain 15; read-out: strain 15 MIC
# S. maltophilia ICB7569 = assay: MIC determination, broth microdilution (CLSI); conditions: Stenotrophomonas maltophilia, ICB7569, strain 10
# [1] = test system: P. aeruginosa 2297 (AmpC wt); assay: MIC determination, broth microdilution (CLSI); conditions: Pseudomonas aeruginosa, strain 7
# K. pneumoniae 60 = assay: MIC determination, broth microdilution (CLSI); conditions: Klebsiella pneumoniae, 60, strain 2
# C. perfringens DSM756 = assay: microbe, parasite or virus in culture; conditions: Clostridium perfringens, DSM756, read-out: strain 16 MIC, strain 16
# E. coli J62-TEM-3 = assay: MIC determination, broth microdilution (CLSI); conditions: Escherichia coli, J62TEM3, read-out: strain 18 MIC, strain 18
# [2] = test system: P. aeruginosa 2297-con (AmpC derepressed); assay: MIC determination, broth microdilution (CLSI); conditions: Pseudomonas aeruginosa, read-out: strain 8 MIC, strain 8
# M. catarrhalis ICB489 = assay: MIC determination, broth microdilution (CLSI); conditions: Moraxella catarrhalis, ICB489, strain 12
# S. pneumoniae 113 = assay: MIC determination, broth microdilution (CLSI); conditions: Streptococcus pneumoniae, 113, strain 14; read-out: strain 14 MIC
# P. aeruginosa PAO1 = assay: MIC determination, broth microdilution (CLSI); conditions: Pseudomonas aeruginosa, PAO1, strain 6
# strain 20 = assay: MIC determination, broth microdilution (CLSI)
# strain 21 = assay: MIC determination, broth microdilution (CLSI)
# E. cloacae 34654 = assay: MIC determination, broth microdilution (CLSI); conditions: Enterobacter cloacae, 34654, strain 3
# S. aureus 133 = assay: MIC determination, broth microdilution (CLSI); conditions: Staphylococcus aureus, 133, strain 11; read-out: strain 11 MIC
# E. coli J62 = assay: MIC determination, broth microdilution (CLSI); conditions: Escherichia coli, J62, strain 17; read-out: strain 17 MIC
# E. coli ATCC25922 = assay: MIC determination, broth microdilution (CLSI); conditions: Escherichia coli, ATCC25922, strain 1
# strain 19 = assay: MIC determination, broth microdilution (CLSI)
# C. freundii K21/3034 = assay: MIC determination, broth microdilution (CLSI); conditions: Citrobacter freundii, K21/3034, strain 4
# H. influenzae ATCC 49247 = assay: MIC determination, broth microdilution (CLSI); conditions: Haemophilus influenzae, ATCC49247, strain 13; read-out: strain 13 MIC
# A. baumannii ATCC15308 = assay: MIC determination, broth microdilution (CLSI); conditions: Acinetobacter baumannii, ATCC15308, strain 9
# M. morganii 126/3048 = assay: MIC determination, broth microdilution (CLSI); conditions: Morganella morganii, 126/3048, strain 5
SMILES,MIC (B. fragilis 6688) [mg/L],MIC (S. maltophilia ICB7569) [mg/L],MIC [1] [mg/L],MIC (K. pneumoniae 60) [mg/L],MIC (C. perfringens DSM756) [mg/L],MIC (E. coli J62-TEM-3) [mg/L],MIC [2] [mg/L],MIC (M. catarrhalis ICB489) [mg/L],MIC (P. aeruginosa PAO1) [mg/L],MIC (strain 20) [mg/L],MIC (strain 21) [mg/L],MIC (E. cloacae 34654) [mg/L],MIC (S. aureus 133) [mg/L],MIC (E. coli J62) [mg/L],MIC (E. coli ATCC25922) [mg/L],MIC (strain 19) [mg/L],MIC (C. freundii K21/3034) [mg/L],MIC (H. influenzae ATCC 49247) [mg/L],MIC (A. baumannii ATCC15308) [mg/L],MIC (M. morganii 126/3048) [mg/L],further results
"CC1(C)[C@H](NC(=O)/C(=N\OCCSc2ccc(C(=N)N)cc2)c2csc(N)n2)C(=O)N1OS(=O)(=O)O [Example 7, (2Z)-2-(2-Amino-1,3-thiazol-4-yl)-2-({2-[(4-carbamimidoylphenyl)sulfanyl]ethoxy}imino)-N-[(3S)-2,2-dimethyl-4-oxo-1-(sulfooxy)azetidin-3-yl]ethanamide]",1,4,16,1,2,8,8,0.25,8,1,1,1,≤ 0.063,1,0.5,0.5,0.5,≤ 0.063,2,0.5,MIC (S. pneumoniae 113): 2 mg/L
"CC1(C)[C@H](NC(=O)/C(=N\OCCOc2ccnc(C(=N)N)c2)c2csc(N)n2)C(=O)N1OS(=O)(=O)O [Example 15, (2Z)-2-(2-Amino-1,3-thiazol-4-yl)-2-({2-[(2-carbamimidoylpyridin-4-yl)oxy]ethoxy}imino)-N-[(3S)-2,2-dimethyl-4-oxo-1-(sulfooxy)azetidin-3-yl]ethanamide]",2,4,8,1,0.5,8,8,≤ 0.063,8,0.5,0.5,1,≤ 0.063,1,0.5,0.5,0.5,≤ 0.063,2,0.5,MIC (S. pneumoniae 113): 2 mg/L
"N=C(N)c1ccc(OCCO/N=C(\C(=O)NC2C(=O)N(OS(=O)(=O)O)C23CCCC3)c2csc(N)n2)cc1 (centres unmarked) [Example 16, (2Z)-2-(2-Amino-1,3-thiazol-4-yl)-2-{[2-(4-carbamimidoylphenoxy)ethoxy]imino}-N-[2-oxo-1-(sulfooxy)-1-azaspiro[3.4]oct-3-yl]ethanamide]",8,8,32,1,4,4,32,1,32,1,1,1,≤ 0.063,2,1,1,2,≤ 0.063,4,0.5,
"CC1(C)[C@H](NC(=O)/C(=N\OCCOc2cc(C(=N)N)ccn2)c2csc(N)n2)C(=O)N1OS(=O)(=O)O [Example 22, (2Z)-2-(2-Amino-1,3-thiazol-4-yl)-2-({2-[(4-carbamimidoylpyridin-2-yl)oxy]ethoxy}imino)-N-[(3S)-2,2-dimethyl-4-oxo-1-(sulfooxy)azetidin-3-yl]ethanamide]",4,4,32,1,2,8,16,0.125,16,1,1,1,≤ 0.063,1,1,0.5,0.5,≤ 0.063,4,1,MIC (S. pneumoniae 113): 2 mg/L
